Data from US20050020576A1, “Kappa agonist compounds and pharmaceutical formulations thereof” (priority 1996, published 2005).
“And” between values parts separate entries of the source, which are not always exact repeats. Equal values may be shown once. Where a name gives a salt, the structure may show the parent alone.

Key:
[1] = molecular target: T1, cloned human kappa receptor (Homo sapiens, UniProt P41145); experiment: [3H]U69593 (agonist) binding to the cloned human kappa receptor
[2] = molecular target: T1, cloned human kappa receptor; experiment: biochemical; type: binding; parameters: (3H)-Diprenorphin, % / k [3H] Diprenorphin, %: dose or concentration left out as unconfirmed; conditions: for inhibition at 1 µM: read-out: 3H-Diprenorphin, % @ 1 uM
[3] = tested on: formalin-induced flinching; experiment: animal or person; type: in vivo, male Sprague-Dawley rats; conditions: rat, in vivo
[4] = Table I, read-out: Ki, nM 3H-Diprenorphin

T1 sequence (P41145 whole entry): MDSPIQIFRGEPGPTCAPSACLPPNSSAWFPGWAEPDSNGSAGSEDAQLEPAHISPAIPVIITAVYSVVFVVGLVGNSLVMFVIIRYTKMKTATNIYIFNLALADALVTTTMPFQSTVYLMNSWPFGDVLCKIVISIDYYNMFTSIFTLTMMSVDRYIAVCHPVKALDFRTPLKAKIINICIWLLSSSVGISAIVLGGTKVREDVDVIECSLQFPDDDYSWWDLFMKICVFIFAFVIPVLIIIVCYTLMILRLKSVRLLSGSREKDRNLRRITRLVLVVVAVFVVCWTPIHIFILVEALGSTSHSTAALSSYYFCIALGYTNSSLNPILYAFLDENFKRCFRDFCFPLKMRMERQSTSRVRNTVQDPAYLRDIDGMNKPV

For `Cl.O=C(Cc1ccc(Cl)c(Cl)c1)N1CCNC[C@@H]1CN1CCCC1` [(R-2), (R)-1-[(3,4-Dichlorophenyl)acetyl]-2-[(1-pyrrolidinyl)methyl]piperazine hydrochloride], the Ki ([1]; Ki, nM 3H-U-69,593) was 1.5 nM and 1.3 nM, the Ki ([2]; Ki, nM 3H-Diprenorphin) was 14 nM and 17 nM and the “Late Phase Formalin, % @ 300; i.paw” value [3] was 57% @ 300.
For `CS(=O)(=O)N1CCN(C(=O)Cc2ccccc2[N+](=O)[O-])[C@H](CN2CCCC2)C1.Cl` (racemic) [(R,S-8c), (R,S)-4-Methanesulfonyl-1-[(2-nitrophenyl)acetyl]-2-[(1-pyrrolidinyl)-methyl]piperazine hydrochloride], the “3H-U-69,593, % @ 1 uM” value [1] was 51% @ 1 uM and the “3H-Diprenorphin, % @ 1 uM” value [2] was 15% @ 1 uM.
With `CN(C(=O)Cc1ccccc1C(=O)O)[C@H](CN1CCCC1)c1ccccc1.Cl` [Example 3kk, 2-(2-Carboxyphenyl)-N-methyl-N-{[1S]-1-phenyl-2-(1-pyrrolidinyl)ethyl}acetamide hydrochloride] the “[3H]-Diprenorphin κ, % @ 1 μM” value [2] was 53% @ 1 μM, the melting point was 230 to 232 °C (dec.) and the “Late Phase Formalin, % @ 300” value [3] was 23% @ 300.
In the case of `CCOP(=O)(CCNc1ccc2c(c1)[C@H](N(C)C(=O)Cc1ccc(Cl)c(Cl)c1)[C@@H](N1CCCC1)CC2)OCC` (racemic) [II-13], the Ki ([1]; Ki (nM) k (mg) [3H]U69,593) is reported as 2.2 nM and the Ki ([2]; Ki (nM) k [3H] Diprenorphin) is reported as 6.2 nM.
For `CN(C(=O)C(c1ccccc1)c1ccccc1)C1CCCCC1N1CCCC1` (racemic) [Example 5s, (±)-trans-N-Methyl-N-[2-(1-pyrrolidinyl)cyclohexyl]2,2-dphenylacetamide Hydrochloride], the Ki ([1]; Ki(nM) U-69593) was 330 nM and the Ki ([2]; Ki(nM) diprenorphine) was 1170 nM.
`CN(C(=O)Cc1ccc(Cl)c(Cl)c1)[C@H]1c2cc(N(CC(=O)O)CC(=O)O)ccc2CC[C@@H]1N1CCCC1` (racemic) [II-12] showed a Ki ([1]; Ki (nM) k (mg) [3H]U69,593) of 0.68 nM and a Ki ([2]; Ki (nM) k [3H] Diprenorphin) of 3.8 nM.
In the case of `CC(=O)N1CCN(C(=O)Cc2ccc(S(C)(=O)=O)cc2)C(CN2CCCC2)C1` (racemic) [(R,S-10a), hydrochloride], the Ki ([1]; Ki, nM 3H-U-69,593) is reported as 2.3 nM, the inhibition at 1 µM [2] is reported as 27% and the “Late Phase Formalin, % @ 300; i.paw” value [3] is reported as 6% @ 300.
With `CS(=O)(=O)N1CCN(C(=O)Cc2ccc(C(F)(F)F)cc2)C(CN2CCCC2)C1` (racemic) [(R,S-8d), (R,S)-4-Methanesulfonyl-1-[(4-trifluoromethylphenyl)acetyl]-2-[(1-pyrrolidinyl)-methyl]piperazine hydrochloride] the Ki ([1]; Ki, nM 3H-U-69,593) was 1.3 nM and 1.9 nM, the Ki ([2]; Ki, nM 3H-Diprenorphin) was 16 nM and 17 nM and the “Late Phase Formalin, % @ 300; i.paw” value [3] was 97% @ 300.
With `Cc1ccc(S(=O)(=O)N2CCN(C(=O)Cc3ccc(Cl)c(Cl)c3)[C@H](CN3CCCC3)C2)cc1` [(R-3l), (R)-4-(4-Methyphenylsulfonyl)-1-[(3,4-dichlorophenyl)acetyl]-2-[(1-Pyrrolidinyl)methyl]-piperazine hydrochloride] the Ki ([1]; Ki, nM 3H-U-69,593) was 6.2 nM, the Ki [2, 4] was 120 nM and the “Late Phase Formalin, % @ 300; i.paw” value [3] was 24% @ 300.
With `CN(C(=O)Cc1ccc(S(C)(=O)=O)cc1)[C@H](CN1CCCC1)c1cccc(NS(C)(=O)=O)c1.CS(=O)(=O)O` [Example 3e, 2-(4-Methanesulfonylphenyl)-N-methyl-N-{[1S]-1-[3-[(methylsulfonyl)amino]phenyl]-2-[1-pyrrolidinyl]ethyl}acetamide methanesulfonate] the Ki ([2]; Ki (nM) [3H]-Diprenorphin κ) was 3.2 nM, the melting point was 140 to 142 °C and the “Late Phase Formalin, % @ 300” value [3] was 71% @ 300.
In the case of `CN(C(=O)Cc1ccc(C(F)(F)F)cc1N(S(C)(=O)=O)S(C)(=O)=O)C1CCCCC1N1CCCC1.Cl` (racemic) [Example 5j, (±)-trans-2-Bismethanesulfonamido-4-trifluoromethyl-N-methyl-N-[2-(1-pyrrolidinyl)cyclohexyl]-phenylacetamide Hydrochloride], the “% @ 1 μM, U-69593” value [1] is reported as 48% @1 μM and the “% @ 1 μM, diprenorphine” value [2] is reported as 13% @ 1 μM.
For `CN(C(=O)C(c1ccccc1)c1ccccc1)[C@H]1c2cc(O)ccc2CC[C@@H]1N1CCCC1` (racemic) [II-4], the Ki ([1]; Table II, read-out: Ki (nM) k (mg) [3H]U69,593) was 432 nM and the Ki ([2]; Table II, read-out: Ki (nM) k [3H] Diprenorphin) was 549 nM.
With `CCOP(=O)(OCC)N1CCN(C(=O)Cc2ccc(Cl)c(Cl)c2)[C@H](CN2CCCC2)C1` [(R-3g), (R)-4-(Diethoxyphosphonate)-1-[(3,4-dichlorophenyl)acetyl]-2-[(1-pyrolidinyl)methyl]-piperazine hydrochloride] the Ki ([1]; Ki, nM 3H-U-69,593) was 1.3 nM and 1.4 nM, the Ki ([2]; Ki, nM 3H-Diprenorphin) was 99 nM and 33 nM and the “Late Phase Formalin, % @ 300; i.paw” value [3] was 54% @ 300.
Compound `CN(C(=O)Cc1ccc(Cl)c(Cl)c1)[C@H]1c2cc(N(CC(=O)OC(C)(C)C)CC(=O)OC(C)(C)C)ccc2CC[C@@H]1N1CCCC1` (racemic) [II-11] has a Ki ([1]; Ki (nM) k (mg) [3H]U69,593) of 2.8 nM and a Ki ([2]; Ki (nM) k [3H] Diprenorphin) of 7.4 nM.
For `O=C(Cc1ccc(Cl)c(Cl)c1)N1CCN(C(=O)C(F)(F)F)C[C@H]1CN1CCCC1` [(R-3h), (R)-4-Trifluoroacetyl-1-(3,4-dichlorophenyl)acetyl]-2-[(1-pyrrolidinyl)methyl]-piperazine hydrochloride], the Ki ([1]; Ki, nM 3H-U-69,593) was 0.26 nM and 0.16 nM, the Ki ([2]; Ki, nM 3H-Diprenorphin) was 6.9 nM and 1.8 nM and the “Late Phase Formalin, % @ 300; i.paw” value [3] was 94% @ 300.
In the case of `CN(C(=O)Cc1ccc(Cl)c(Cl)c1)[C@H](CN1CCCC1)c1cccc(NC(=O)/C=C\C(=O)O)c1` [Example 3h], the Ki ([2]; Ki (nM) [3H]-Diprenorphin κ) is reported as 1.8 nM, the melting point is reported as 174 to 176 °C and the “Late Phase Formalin, % @ 10” value [3] is reported as 59% @ 10.
For `CN(C(=O)Cc1ccc(C(F)(F)F)cc1NC(=O)/C=C\C(=O)O)[C@H](CN1CCCC1)c1ccccc1` [Example 3z], the Ki ([2]; Ki (nM) [3H]-Diprenorphin κ) was 1.7 nM, the melting point was 153 to 155 °C (dec.) and the “Late Phase Formalin, % @ 300” value [3] was 98% @ 300.
Compound `CC(=O)N1CCN(C(=O)Cc2ccccc2[N+](=O)[O-])C(CN2CCCC2)C1` (racemic) [(R,S-10e), (R,S)-4-Acetyl-1-[(2-nitrophenyl)acetyl]-3-[(1-pyrrolidinyl)-methyl]piperazine-carboxylate hydrochloride] has a Ki ([1]; Ki, nM 3H-U-69,593) of 24 nM and a Ki [2, 4] of 541 nM.
For `COC(=O)N1CCN(C(=O)Cc2ccc(S(C)(=O)=O)cc2)C(CN2CCCC2)C1` (racemic) [(R,S-9a), (R,S)-Methyl 4-[(4-methylsulfonylphenyl)acetyl]-3-[(1-pyrrolidinyl)-methyl]-1-piperazinecarboxylate hydrochloride], the Ki ([1]; Ki, nM 3H-U-69,593) was 0.37 nM and 0.42 nM, the Ki ([2]; Ki, nM 3H-Diprenorphin) was 11 nM and the “Late Phase Formalin, % @ 300; i.paw” value [3] was 46% @ 300.
`CC(=O)N1CCN(C(=O)Cc2cccc([N+](=O)[O-])c2)C(CN2CCCC2)C1` (racemic) [(R,S-10d), (R,S)-4-Acetyl-1-[(3-nitrophenyl)acetyl]-3-[(1-pyrrolidinyl)-methyl]piperazine-carboxylate hydrochloride] gave a Ki ([1]; Ki, nM 3H-U-69,593) of 0.72 nM and an inhibition at 1 µM [2] of 94%.
With `CS(=O)(=O)c1ccc(CC(=O)N2CCN(S(C)(=O)=O)CC2CN2CCCC2)cc1` (racemic) [(R,S-8b), (R,S)-4-Methanesulfonyl-1-[(4-methylsulfonylphenyl)acetyl]-2-[(1-pyrrolidinyl)-methyl]piperazine hydrochloride] the Ki ([1]; Ki, nM 3H-U-69,593) was 20 nM and 31 nM and the inhibition at 1 µM [2] was 41%.
For `CS(=O)(=O)N1CCN(C(=O)Cc2c[nH]c3ccccc23)C(CN2CCCC2)C1` (racemic) [(R,S-8e), (R,S)-4-Methanesulfonyl-1-[(3-indolylacetyl-2-[(1-pyrrolidinyl)-methyl]piperazine hydrochloride], the Ki ([1]; Ki, nM 3H-U-69,593) was 5.3 nM and 3.2 nM and the inhibition at 1 µM [2] was 74%.
With `CC(=O)N1CCN(C(=O)Cc2ccc([N+](=O)[O-])cc2)C(CN2CCCC2)C1` (racemic) [(R,S-10f), hydrochloride] the Ki ([1]; Ki, nM 3H-U-69,593) was 2.4 nM and the inhibition at 1 µM [2] was 59%.
`COc1cc2c(cc1S(=O)(=O)N(C)Cc1ccccc1)[C@H](N(C)C(=O)Cc1ccc(Cl)c(Cl)c1)[C@@H](N1CCCC1)CC2` (racemic) [II-15] showed a Ki ([1]; Ki (nM) k (mg) [3H]U69,593) of 8 nM and a Ki ([2]; Ki (nM) k [3H] Diprenorphin) of 48 nM.
With `CN(C(=O)Cc1ccc(Cl)c(Cl)c1)[C@H](CN1CCCC1)c1cccc(NS(C)(=O)=O)c1.Cl` [Example 3f, 2-(3,4-Dichlorophenyl)-N-methyl-N-{[1S]-1-[3-[(methylsulfonyl)amino]phenyl]-2-[1-pyrrolidinyl]ethyl}acetamide hydrochloride] the Ki ([2]; Ki (nM) [3H]-Diprenorphin κ) was 0.18 nM, the melting point was 240 to 242 °C and the “Late Phase Formalin A50” value [3] was 8.9 mg/kg.
For `CN(C(=O)Cc1ccc(C(F)(F)F)cc1)[C@H](CN1CCCC1)c1cccc(NS(C)(=O)=O)c1.Cl` [Example 3d, 2-(4-Trifluoromethylphenyl)-N-methyl-N-{[1S]-1-[3-[(methylsulfonyl)amino]phenyl]-2-[1-pyrrolidinyl]ethyl}acetamide hydrochloride], the Ki ([2]; Ki (nM) [3H]-Diprenorphin κ) was 0.28 nM, the melting point was 173 to 175 °C and the “Late Phase Formalin A50” value [3] was 16.0 mg/kg.
With `CN(C(=O)Cc1ccc(Cl)c(Cl)c1)[C@H]1c2cc(S(=O)(=O)N(C)Cc3ccccc3)ccc2CC[C@@H]1N1CCCC1` (racemic) [II-16] the Ki ([1]; Ki (nM) k (mg) [3H]U69,593) was 40 nM and the Ki ([2]; Ki (nM) k [3H] Diprenorphin) was 200 nM.
With `CN(C(=O)C(c1ccccc1)c1ccccc1)[C@H]1c2ccccc2C[C@@H]1N1CCCC1` (racemic) [II-20] the Ki [1] was 146 nM and the “k [3H] Diprenorphin, %” value [2] was 29% @ 1 mM.
In the case of `CCOP(=O)(Nc1ccc2c(c1)[C@H](N(C)C(=O)Cc1ccc(Cl)c(Cl)c1)[C@@H](N1CCCC1)CC2)OCC` (racemic) [II-14], the Ki ([1]; Ki (nM) k (mg) [3H]U69,593) is reported as 0.6 nM and the Ki ([2]; Ki (nM) k [3H] Diprenorphin) is reported as 2.4 nM.
With `COc1ccc2c(c1)[C@H](N(C)C(=O)C(c1ccccc1)c1ccccc1)[C@@H](N1CCCC1)CC2` (racemic) [II-2] the Ki ([1]; Ki (nM) k (mg) [3H]U69,593) was 20 nM and the Ki ([2]; Ki (nM) k [3H] Diprenorphin) was 142 nM.
In the case of `CC(=O)N1CCN(C(=O)Cc2ccccc2C(F)(F)F)C(CN2CCCC2)C1` (racemic) [(R,S-10c), (R,S)-4-Acetyl-1-[(2-trifluoromethylphenyl)acetyl]-3-[(1-pyrrolidinyl)-methyl]piperazinecarboxylate hydrochloride], the Ki ([1]; Ki, nM 3H-U-69,593) is reported as 16 nM and the inhibition at 1 µM [2] is reported as 45%.
With `CC(C)(C)OC(=O)N[C@H](CC(=O)OCc1ccccc1)C(=O)N1CCN(C(=O)Cc2ccc(Cl)c(Cl)c2)[C@H](CN2CCCC2)C1` [(R-3d), (R)-4-N-t-Boc-D-aspartic acid-β-benzyl ester-1-[(3,4-dichlorophenyl)acetyl]-2-[(1-pyrrolidinyl)methyl]-piperazine] the Ki ([1]; read-out: Ki, nM 3H-U-69,593) was 379 nM and 249 nM and the “3H-Diprenorphin, % @ 1 uM” value [2] was 36% @ 1 uM.
